The results in this text go back to patent publication US10646600B2, “HER2 polypeptides useful for imaging and monitoring tumors and cancers” (GE HEALTHCARE LIMITED, priority 2013, dated 2020).

The test system of data set [1] is MCF7 and MCF7-p95HER2 xenografts. Description: PET-CT imaging and kinetic modeling, HER2 negative xenografts. The conditions noted are these: HER2 negative tumors. The class given is in vivo, mice. The text has this:
(§1) Mice were anesthetized through isoflurane inhalation and scanned on a dedicated small animal PET-CT scanner (Siemens Multimodality Inveon, Erlangen, Germany). Low dose CT scans were first acquired (80 kVp, 0.5 mA, 220 degree rotation, 600 ms per degree exposure time, 80 μm reconstruction pixel size) for PET attenuation correction and to obtain an anatomical reference. PET images were acquired following a bolus i.v. injection of approximately 3.7 MBq [^18F]GE-226 in the tail vein. Dynamic emission scans were acquired in list mode format over 60 minutes. The acquired data were sorted into 0.5-mm sinogram bins and 19 time frames for image reconstruction by filtered back projection (4×15 seconds and 4×60 seconds followed by 11×300 seconds). The Siemens Inveon Research Workplace software was used for visualization of radiotracer uptake. 30 to 60-minute cumulative images of the dynamic data were employed to define 3-dimensional (3D) regions of interest (ROI). […] The count densities were averaged for all ROIs at each time point to obtain time versus radioactivity curves (TAC). Tumor TACs were normalized to injected dose measured by a VDC-304 dose calibrator (Veenstra Instruments, Joure, Netherlands) and normalized uptake was expressed as percentage injected dose per mL tissue (NUV; % ID/mL). […]

Data set [2] has as its system MCF7-HER2. Kind of data set: Biodistribution, MCF7-HER2 tumor. The class given is in vivo, mice. The conditions noted are these: 60 min. The text has this:
Mice were sacrificed at different time points by exsanguination.

In data set [3] the test system is MDA-MB-361 xenografts. Kind of data set: PET-CT imaging and kinetic modeling, MDA-MB-361 xenografts. The class given is in vivo, mice.
Source text: as §1

Data set [4] in a line: Metabolic stability, plasma radio-HPLC. The class given is in vivo, mice. The conditions noted are these: 3.7 MBq i.v., 10, 30 and 60 minutes post injection. The method, then: At 10, 30 and 60 minute post injection, mice were exsanguinated via cardiac puncture and blood removed for centrifugation. Plasma was obtained and kept on ice for analysis of radioactive metabolites by HPLC.

Data set [5] concerns human p95HER2. Description: Surface Plasmon Resonance, p95HER2 ECD-Fc-6×His. Format: binding. As for the experimental part:
To characterize the affinity of [^19F]GE-226[SEQ ID NO 1] to HER2 protein, Surface Plasmon Resonance studies were conducted. Human, rhesus and rat HER2-ECD-Fc (SINO Biological, Beijing, China, Cat. Nr: 10004-H02H, 90020-K02H, and 80079-R02H), as well as human HER2-ECD-Fc-6×His (R&D Systems, Minneapolis, Minn., Cat. Nr: 1129-ER) and p95HER2 ECD-Fc-6×His (Syngene, Cambridge, United Kingdom) were diluted with 50 mM sodium acetate pH 4.5 (Biacore (GE Healthcare, Buckinghamshire, UK) coupling buffer) to a final concentration of 10 μg/mL. Antigen coupling to Biacore sensor chip CMS (Cat. Nr: BR-1005-30) was done according to amine coupling protocol from the instrument manual […]. HBS-EP buffer (10 mM HEPES pH 7.4, 150 mM NaCl, 3 mM EDTA and 0.005% surfactant P20; GE Healthcare, Little Chalfont, United Kingdom, Cat. Nr: BR-1006-69) was used as running buffer and as solvent for the substances. The affinity studies were performed using a Biacore T100 (GE Healthcare). [^19F]GE-226 was diluted in HBS-EP buffer to 50 nM, 25 nM, 12.5 nM, 6.25 nM, 3.125 nM, 1.56 nM, 0.78 nM, 0.39 nM, 0.195 nM, 0.097 nM, 0.049 nM and 0 nM. The flow cells of the first chip comprised of blank, human HER2-ECD-Fc-6×His, p95HER2-ECD-Fc-6×His batch I and p95HER2-ECD-Fc-6×His batch II. The flow cells on the second chip contained blank, human HER2-ECD-Fc, rhesus HER2-ECD-Fc and rat HER2 ECD-Fc. […]

The target in data set [6] is T1, rat HER2 (Rattus norvegicus, UniProt P06494).
T1 construct: Human, rhesus and rat HER2-ECD-Fc (SINO Biological, Beijing, China, Cat. Nr: 10004-H02H, 90020-K02H, and 80079-R02H); Fc (C); purchased SINO Biological 80079-R02H
T1 sequence (P06494 23-654 limits assumed): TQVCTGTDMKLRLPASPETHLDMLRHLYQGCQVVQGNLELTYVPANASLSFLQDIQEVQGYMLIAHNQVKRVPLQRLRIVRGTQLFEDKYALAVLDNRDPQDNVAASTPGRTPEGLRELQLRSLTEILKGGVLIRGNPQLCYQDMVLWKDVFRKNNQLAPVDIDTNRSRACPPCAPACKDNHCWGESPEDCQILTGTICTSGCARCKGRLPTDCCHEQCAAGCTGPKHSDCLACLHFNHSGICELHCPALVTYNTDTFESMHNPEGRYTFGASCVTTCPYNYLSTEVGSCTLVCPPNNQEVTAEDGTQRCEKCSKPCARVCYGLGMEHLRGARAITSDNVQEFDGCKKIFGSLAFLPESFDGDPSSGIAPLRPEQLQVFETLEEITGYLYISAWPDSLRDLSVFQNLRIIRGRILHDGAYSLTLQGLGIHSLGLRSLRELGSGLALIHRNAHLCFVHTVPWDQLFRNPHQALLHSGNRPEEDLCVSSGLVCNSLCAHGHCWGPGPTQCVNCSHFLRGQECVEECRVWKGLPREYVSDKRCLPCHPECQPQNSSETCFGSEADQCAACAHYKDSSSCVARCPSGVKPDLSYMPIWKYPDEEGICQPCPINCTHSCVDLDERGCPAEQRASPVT
Kind of data set: Surface Plasmon Resonance, rat HER2-ECD-Fc. Format: binding. The method, then:
(§2) To characterize the affinity of [^19F]GE-226[SEQ ID NO 1] to HER2 protein, Surface Plasmon Resonance studies were conducted. Human, rhesus and rat HER2-ECD-Fc (SINO Biological, Beijing, China, Cat. Nr: 10004-H02H, 90020-K02H, and 80079-R02H), as well as human HER2-ECD-Fc-6×His (R&D Systems, Minneapolis, Minn., Cat. Nr: 1129-ER) and p95HER2 ECD-Fc-6×His (Syngene, Cambridge, United Kingdom) were diluted with 50 mM sodium acetate pH 4.5 (Biacore (GE Healthcare, Buckinghamshire, UK) coupling buffer) to a final concentration of 10 μg/mL. Antigen coupling to Biacore sensor chip CMS (Cat. Nr: BR-1005-30) was done according to amine coupling protocol from the instrument manual (Syngene). HBS-EP buffer (10 mM HEPES pH 7.4, 150 mM NaCl, 3 mM EDTA and 0.005% surfactant P20; GE Healthcare, Little Chalfont, United Kingdom, Cat. Nr: BR-1006-69) was used as running buffer and as solvent for the substances. The affinity studies were performed using a Biacore T100 (GE Healthcare). [^19F]GE-226 was diluted in HBS-EP buffer to 50 nM, 25 nM, 12.5 nM, 6.25 nM, 3.125 nM, 1.56 nM, 0.78 nM, 0.39 nM, 0.195 nM, 0.097 nM, 0.049 nM and 0 nM. The flow cells of the first chip comprised of blank, human HER2-ECD-Fc-6×His, p95HER2-ECD-Fc-6×His batch I and p95HER2-ECD-Fc-6×His batch II. The flow cells on the second chip contained blank, human HER2-ECD-Fc, rhesus HER2-ECD-Fc and rat HER2 ECD-Fc. The immobilization of the proteins was validated with protein-A (Sigma-Aldrich, St. Louis, Mo., Cat. Nr: P6031) and anti-human IgG antibody (Perkin Elmer, Waltham, Mass., Cat. Nr: NEF803001EA). [^19F]GE-226[SEQ ID NO 1] was pumped in duplicate over cells in randomized order for 60 sec at 50 μL/min flow rate followed by 120 sec of HBS-EP to monitor dissociation. This was followed by regeneration of the chip with 50 mM sodium hydroxide for 30 sec at 30 μL/min flow rate followed by 60 sec run of HBS-EP to stabilize the surface. Kinetic calculations were performed using Langmuir 1:1 binding model and simultaneous calculation of association and dissociation phase.

Data set [7] concerns rhesus HER2. Kind of data set: Surface Plasmon Resonance, rhesus HER2-ECD-Fc. Format: binding. The method, then: as §2
Setting [8] is: two-tissue irreversible compartmental model.
The mark [9] stands for this setting: listed as 19F-Affibody analogue.

Where two headings read alike, the source gives them in different places.

Turning to “[^18F]GE-226: HER2-binding 18F-radiolabelled Affibody molecule ZHER2:2891”, the NUV60 in data set [1] (PET, 60 minutes) turned out to be 6.1±0.7 % ID/mL; in data set [3] (PET, 60 minutes), 18.2±3.4 % ID/mL. The entries for the “Ki (net irreversible uptake rate)” value in data set [1] (setting [8]) and in data set [3] (setting [8]) were 0.0069±0.0014 mL/cm^3/min and 0.025±0.0052 mL/cm^3/min, respectively. Further, the “Tissue uptake, MCF7-HER2” value in data set [2] was found to be 11.06 ± 3.31 % ID/g tissue. Besides, the “metabolic stability” value in data set [4] is “metabolically stable”; in data set [4] (listed as tracer), “stable in vivo”.

As for “[^19F]GE-226: cold unlabeled non-radioactive 19F analogue of the tracer, used for SPR and blocking”, the “interaction with human p95HER2 (words)” value in data set [5] and in data set [5] (setting [9]) was “did not interact” throughout. Moreover, the “interaction with rat HER2 (words)” value in data set [6] was “did not interact”; in data set [6] (setting [9]), “did not interact”; in data set [6] (listed as GE-226) it was “not”. The Off-rate koff in data set [7] (Rhesus HER2) was 0.000425 s⁻¹. In data set [7] (Rhesus HER2, Langmuir 1:1 binding model), this substance yielded an On-rate kon of 6.37e+06 M⁻¹ s⁻¹. The Kd in data set [7] (Rhesus HER2, read-out: Affinity KD) worked out at 0.0667 nM; in data set [7] (rhesus HER2, text, read-out: KD), 0.067 nM. Besides, the “binding to rhesus HER2 (words)” value is recorded as “binds with high affinity” in data set [7] (listed as GE-226) and “high affinity binding” in data set [7] (listed as [^19F]-GE-226).

Broadly, the Kd is the equilibrium constant for the complex coming apart.
